Values of other authors, collected in patent publication US6660287B1, “Prevention of spoilage of produce using acidified expanded amorphous aluminum silicate impregnated with chlorite” (Bio-Cide International, Inc., priority 1999, dated 2003).

Test system: mice

Compound | chromosomal aberrations or increased numbers of micronuclei in the bone marrow (subchronic and acute oral administration, mice (Meier et al.)) | mutagenic potential (mouse, in vivo, po)
[O][Cl+][O-] [chlorine dioxide] | failed to induce any chromosomal aberrations or increased numbers of micronuclei | 
OCl [hypochlorite] |  | weak positive effect
